# According to US20110092624A1, “INK COMPOSITION AND METHOD FOR PRODUCING THE SAME” (SEIKO EPSON CORPORATION, priority 2009, published 2011):
# Assay: Solubility of acidic dye and by-product in solvents, rated by filter cake weight
# Format: physicochemical
# Details: 10 g solvent, filtered 0.2 μm, dried filter cake weighed
# Description: The acidic dye was C. I. Acid Blue 290. The acidic dye was added to 10 g of each organic solvent and the organic solvent was agitated, whereby the acidic dye was dissolved in the organic solvent. A solution thereby obtained was filtered through an Omnipore membrane filter, having a pore size of 0.2 μm, available from Nihon Millipore K.K. A filter cake thereby obtained was dried and then weighed. A by-product represented by the following formula was measured for solubility in the same manner as that used to measure the acidic dye:
# The solubility of the acidic dye and by-product in each organic solvent was evaluated on the basis of the weight of the filter cakes. Evaluation standards were as described below.
# A rating of 5: 0 to less than 0.2 g of a filter cake
# A rating of 4: 0.2 to less than 0.4 g of a filter cake
# A rating of 3: 0.4 to less than 0.6 g of a filter cake
# A rating of 2: 0.6 to less than 0.8 g of a filter cake
# A rating of 1: 0.8 g or more of a filter cake
substance,measurement,setting,value
C. I. Acid Blue 290 [Acidic dye],Solubility rating,Acetone,1 (A rating of 1: 0.8 g or more of a filter cake)
same,Solubility rating,Acrylonitrile,3 (A rating of 3: 0.4 to less than 0.6 g of a filter cake)
same,Solubility rating,Chloroform,4 (A rating of 4: 0.2 to less than 0.4 g of a filter cake)
same,Solubility rating,Ethanol,3 (A rating of 3: 0.4 to less than 0.6 g of a filter cake)
same,Solubility rating,Hexane,2 (A rating of 2: 0.6 to less than 0.8 g of a filter cake)
same,Solubility rating,Methanol,5 (A rating of 5: 0 to less than 0.2 g of a filter cake)
same,Solubility rating,Tetrahydrofuran,4 (A rating of 4: 0.2 to less than 0.4 g of a filter cake)
same,Solubility rating,Water,1 (A rating of 1: 0.8 g or more of a filter cake)
